# From patent US10610535B2 (The Regents of the University of California, priority 2005, dated 2020)
# Experiments:
# [1] = tested on: SJL mice with adoptive EAE; conditions: followed for the first 27 days; cited from earlier work
# ERβ as compared to ERα = ERβ as compared to ERα (Homo sapiens, UniProt Q92731); conditions: cited from earlier work
# [2] = tested on: women with clinically definite MS; test: Tolerability and laboratory safety measures, estriol trial and extension phase; assay type: in vivo, human; conditions: oral estriol 8 milligrams/day
# Excerpt: Twelve female patients with clinically definite MS were enrolled. Six had RR disease and six had SP disease. All six RR and four of six SP patients completed the entire 18 month study period. […] Of the ten patients who completed the entire study, the mean age was 44 years (range 28 to 50 years) and the mean EDSS was 3.3 (range 1.0 to 6.5). The mean EDSS score for the SP patients was 5.0 while the mean EDSS for the RR patients was 2.2. The 18 month trial was extended in RR patients whereby treatment was re-instituted. Medication. For the initial treatment phase, micronized, U.S.P. graded estriol powder (Medisca, Inc., Plattsburg, N.Y.) was put into capsules by UCLA Pharmaceutical Services.
# (§1) Subjects were evaluated using the Kurtzke's Expanded Disability Status Scale (EDSS) by the same neurologist (RV) throughout the study. At each visit the study nurse (RK) administered the paced auditory serial addition test (PASAT) and the 9-hole peg test. Blood was drawn for SMA12, cholesterol panel, blood counts and hormone levels (estriol, estradiol, estrone, LH, FSH, cortisol, progesterone). Estriol levels in serum were determined by ELISA according to manufacturer's instructions (Oxford Biomedical, Oxford, Mich.).
# Indeed, estrogen cannot be given for a lengthy period of time in an “unopposed” fashion in any woman with a uterus. […]
# EAE mice = conditions: cited from earlier work
# [3] = tested on: DTH responses to tetanus and candida; conditions: cited from earlier work
# [4] = tested on: women with clinically definite MS; test: Serial cerebral MRI: gadolinium enhancing lesions and T2 lesion volumes
# [5] = tested on: post-partum patient with relapsing remitting multiple sclerosis; test: Case of post-partum relapsing remitting MS patient; assay type: in vivo, human
# Protocol: A patient was diagnosed as having relapsing remitting multiple sclerosis. Following the delivery of their first child (now […]), the patient was treated only with Copaxone and relapsed at 6 weeks. Following the delivery of their second child (now […]), the patient was again treated with Copaxone alone and again relapsed, this time at 4.5 months. Following a subsequent pregnancy, the patient was treated with 8 mg estriol/day in an attempt to prevent their post partum relapses.
# Following the birth of the patient's third child (now 6 months), the patient resumed treatment with Copaxone as before. However, on day 10 post-partum they began taking estriol 8 mg/daily in an oral dosage form. […] Since monthly brain MRIs with gadolinium to detect enhancing MS lesions are more sensitive for inflammatory disease activity than relapses, the patient underwent serial monthly MRIs at post partum months 4, 5, and 6.
# The patient doubled the progesterone minipill for 2 weeks to stabilize the endometrium. Otherwise no adverse events have been reported.
# [6] = tested on: DTH responses to tetanus and candida; parameters: species or system human; conditions: in vivo
# [7] = tested on: women with clinically definite MS; test: Clinical measures: EDSS, 9-hole peg test, PASAT, relapses; assay type: in vivo, human
# Protocol: as §1
# [8] = Serum estriol levels (ELISA) in oral estriol crossover trial; assay type: in vivo, human; conditions: oral estriol 8 milligrams/day, treatment and re-treatment, MS patients
# Protocol: as §1
# [9] = tested on: IFNγ in peripheral blood mononuclear cells (PBMCs); test: IFNγ levels by RT-PCR of unstimulated PBMCs derived ex vivo; assay type: in vivo, human
# Protocol: Peripheral blood mononuclear cells (PBMCs) were isolated from heparinized venous blood and cryopreserved. PBMCs were thawed in parallel from a given patient during the two pre-treatment timepoints and the two treatment timepoints. Total RNA was isolated, DNA was removed and mRNA was reverse transcribed. Both IFN-γ and actin were amplified from the same cDNA, however, the cDNA was diluted 1:9 prior to amplification for actin. Amplification was done in 1 mM […] using IFN.γ and actin primer sequences (Life Technologies, Rockville, Md.). Complementary DNA was amplified for 35 cycles: 45″ @ 95° C., 60″ @ 54° C. and 45″ @ 72° C. PCR products were separated on a 1.5% agarose gel containing ethidium bromide and densitometry performed.
# [10] = tested on: peripheral blood mononuclear cells; conditions: pilot clinical trial, non-pregnant female MS patients; cited from earlier work
# [11] = tested on: women with clinically definite MS; conditions: pilot clinical trial, non-pregnant female MS patients; cited from earlier work
# [12] = 90 day release pellets of 5 or 15 milligrams estriol
# [13] = RR patients, first three months of treatment
# [14] = RR patients, next three months of treatment
# Chain of ERβ as compared to ERα (Q92731 whole entry): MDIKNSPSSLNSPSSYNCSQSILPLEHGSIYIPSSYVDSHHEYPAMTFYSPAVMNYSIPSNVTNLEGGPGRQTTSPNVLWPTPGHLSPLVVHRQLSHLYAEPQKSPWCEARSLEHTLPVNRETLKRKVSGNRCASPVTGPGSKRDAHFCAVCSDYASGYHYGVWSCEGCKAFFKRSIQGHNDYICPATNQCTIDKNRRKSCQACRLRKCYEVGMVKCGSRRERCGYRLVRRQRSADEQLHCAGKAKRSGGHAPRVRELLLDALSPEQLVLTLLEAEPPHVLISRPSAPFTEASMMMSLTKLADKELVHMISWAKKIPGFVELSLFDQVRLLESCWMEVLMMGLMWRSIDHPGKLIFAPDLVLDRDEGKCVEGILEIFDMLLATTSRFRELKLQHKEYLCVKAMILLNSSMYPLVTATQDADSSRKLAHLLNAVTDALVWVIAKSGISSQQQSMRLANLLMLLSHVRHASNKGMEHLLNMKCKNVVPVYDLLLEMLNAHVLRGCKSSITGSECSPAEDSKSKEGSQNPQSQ
structure (smiles),measurement,setting,value
C=Cc1cc(O)cc2nc(-c3ccc(O)c(F)c3)oc12 [WAY-202041],Effect in adoptive EAE,[1],no effect
same,Selectivity for ERβ as compared to ERα,ERβ as compared to ERα,200 fold
"C[C@]12CC[C@@H]3c4ccc(O)cc4CC[C@H]3[C@@H]1CC(O)C2O (some centres unmarked) [estriol, estra-1,3,5(10)-triene-3,16,17-triol]","Laboratory measures including LH, FSH, cortisol, progesterone, estradiol and estrone",[2],no significant alterations
same,Tolerability,[2]; six months,well tolerated with only menstrual cycle abnormalities
same,EAE disease severity,"EAE mice; 90 day release pellets of 5 or 15 milligrams estriol, before or after disease onset",reduced
same,Inflammation and demyelination,EAE mice; [12],reduced inflammation and demyelination
same,Production of the Th2 cytokine IL-10,EAE mice; [12],increase production
same,Onset of clinical EAE,EAE mice; late pregnancy levels of estriol or supraphysiological doses of estradiol (5 times pregnancy levels),delay the onset
same,Delayed type hypersensitivity response (prototypic in vivo Th1 response),[3],reduced
same,Change in median T2 lesion volumes (lower),"[4]; RR group, four month re-treatment extension period",2.0%
same,Change in median T2 lesion volumes (higher),"[4]; RR group, six month post treatment period",7.4%
same,Change in median T2 lesion volumes,"[4]; RR group, six month treatment period",0%
same,Decrease in median total enhancing lesion numbers,[4]; [13],82%
same,Decrease in median total enhancing lesion volumes,[4]; [13],79%
same,Median total enhancing lesion volumes and numbers,"[4]; RR patients, last three months of the post treatment period",returning to near baseline levels
same,Decrease in median total enhancing lesion numbers,[4]; [14],82%
same,Decrease in median total enhancing lesion volumes,[4]; [14],82%
same,Total volume and number of enhancing lesions,"[4]; all ten MS patients (6RR, 4SP), treatment period vs six month pretreatment baseline",decreased
same,Post-partum relapses,"[5]; estriol 8 mg/daily oral from day 10 post-partum, with Copaxone, third child",no relapses for 6 months
same,Adverse events,[5]; estriol 8 mg/daily with Copaxone and norethindrone 0.35 mg daily,increased irregular menstrual bleeding
same,EDSS,"[5]; estriol 8 mg/daily with Copaxone, 6 months post-partum",1
same,Uterine ultrasounds,[5]; month 3 and 6,"thin, not thick, endometrium"
same,Gadolinium enhancement on brain MRI,"[5]; post partum month 4, estriol with Copaxone",no enhancement
same,Gadolinium enhancement on brain MRI,"[5]; post partum month 5, estriol with Copaxone",only one small enhancing lesion
same,Gadolinium enhancement on brain MRI,"[5]; post partum month 6, estriol with Copaxone",No new enhancement
same,T2 lesion load,"[5]; post partum months 4-6, estriol with Copaxone",stable throughout
same,DTH responses to candida,[6],decreased less dramatically and more variably
same,DTH responses to tetanus,[6],"significantly, P=−0.006, decreased"
same,Hole Peg Test Score,"[7]; 4 RR, L, 9 mo., Estriol Treatment",24.3
same,Hole Peg Test Score,"[7]; 4 RR, L, 12 mo., Estriol Treatment",23.3
same,Hole Peg Test Score,"[7]; 4 RR, L, 15 mo., Post Treatment",23.0
same,Hole Peg Test Score,"[7]; 4 RR, L, 18 mo., Post Treatment",22.7
same,Hole Peg Test Score,"[7]; 4 RR, R, 9 mo., Estriol Treatment",22.5
same,Hole Peg Test Score,"[7]; 4 RR, R, 12 mo., Estriol Treatment",21.5
same,Hole Peg Test Score,"[7]; 4 RR, R, 15 mo., Post Treatment",21.0
same,Hole Peg Test Score,"[7]; 4 RR, R, 18 mo., Post Treatment",21.4
same,EDSS Scores,"[7]; 4 SP, 9 mo., Estriol Treatment",4.9
same,EDSS Scores,"[7]; 4 SP, 12 mo., Estriol Treatment",5.0
same,EDSS Scores,"[7]; 4 SP, 15 mo., Post Treatment",5.1
same,EDSS Scores,"[7]; 4 SP, 18 mo., Post Treatment",5.0
same,Hole Peg Test Score,"[7]; 4 SP, L, 9 mo., Estriol Treatment",22.7
same,Hole Peg Test Score,"[7]; 4 SP, L, 12 mo., Estriol Treatment",24.8
same,Hole Peg Test Score,"[7]; 4 SP, L, 15 mo., Post Treatment",26.7
same,Hole Peg Test Score,"[7]; 4 SP, L, 18 mo., Post Treatment",25.0
same,Hole Peg Test Score,"[7]; 4 SP, R, 9 mo., Estriol Treatment",30.2
same,Hole Peg Test Score,"[7]; 4 SP, R, 12 mo., Estriol Treatment",31.7
same,Hole Peg Test Score,"[7]; 4 SP, R, 15 mo., Post Treatment",29.4
same,Hole Peg Test Score,"[7]; 4 SP, R, 18 mo., Post Treatment",34.0
same,EDSS Scores,"[7]; 6 RR, 9 mo., Estriol Treatment",1.5
same,EDSS Scores,"[7]; 6 RR, 12 mo., Estriol Treatment",1.7
same,EDSS Scores,"[7]; 6 RR, 15 mo., Post Treatment",1.8
same,EDSS Scores,"[7]; 6 RR, 18 mo., Post Treatment",1.8
same,Improvement in PASAT scores,"[7]; RR patients, during treatment as compared to baseline",14.0%
same,Relapses,"[7]; SP patients, whole study",No relapses
same,EDSS and 9 Hole Peg Test scores,[7]; during the study,no significant changes
same,Relapses,"[7]; six RR patients, post treatment period",two
same,Relapses,"[7]; six RR patients, re-treatment period",none
same,Relapses,"[7]; six RR patients, treatment period",one
same,Serum estriol levels,[8],approximated those observed in women who were six months pregnant
same,Levels of IFNγ,[9]; four SP patients,no decrease
same,Levels of IFNγ,"[9]; six RR patients, study month 9 (three months of treatment) vs pretreatment",variably decreased
same,Levels of IFNγ,"[9]; six RR patients, study month 12 (six months of treatment) vs pretreatment",significantly decreased
same,"TH2 (IL5, IL10) cytokine production by peripheral blood mononuclear cells",[10],increased
same,"Th1 (TNFα, IFNγ) cytokine production by peripheral blood mononuclear cells",[10],reduced
same,Reduction of gadolinium-enhancing lesions on serial brain MRIs,[11],> 80%
